The values that follow come from ChEMBL document CHEMBL5634123, “Design and synthesis of 1H-benzo[d]imidazole selective HDAC6 inhibitors with potential therapy for multiple myeloma” (Eur J Med Chem, 2023).

For orientation: IC50 means the midpoint of a concentration-inhibition curve. Usually AUC(0-t) stands for the area under the concentration-time curve up to a stated or last time point. Lower therefore signals low exposure. The bioavailability is the share of a dose that reaches the circulation, judged against a reference dose that is usually intravenous. Low readings indicate little systemic uptake, high ones much systemic uptake. By clearance is commonly meant the rate of elimination divided by the concentration.

Active and inactive are the calls of the source. The calls are words filed in the database; no cut-off is given here.

For one data set, the target named is Histone deacetylase 1 (Homo sapiens, UniProt Q13547). Put plainly: Inhibition of HDAC1 (unknown origin) preincubated for 10 mins followed by substrate addition measured for 1 hr by fluorescence based assay.
Sequence of Histone deacetylase 1 (Q13547 whole entry): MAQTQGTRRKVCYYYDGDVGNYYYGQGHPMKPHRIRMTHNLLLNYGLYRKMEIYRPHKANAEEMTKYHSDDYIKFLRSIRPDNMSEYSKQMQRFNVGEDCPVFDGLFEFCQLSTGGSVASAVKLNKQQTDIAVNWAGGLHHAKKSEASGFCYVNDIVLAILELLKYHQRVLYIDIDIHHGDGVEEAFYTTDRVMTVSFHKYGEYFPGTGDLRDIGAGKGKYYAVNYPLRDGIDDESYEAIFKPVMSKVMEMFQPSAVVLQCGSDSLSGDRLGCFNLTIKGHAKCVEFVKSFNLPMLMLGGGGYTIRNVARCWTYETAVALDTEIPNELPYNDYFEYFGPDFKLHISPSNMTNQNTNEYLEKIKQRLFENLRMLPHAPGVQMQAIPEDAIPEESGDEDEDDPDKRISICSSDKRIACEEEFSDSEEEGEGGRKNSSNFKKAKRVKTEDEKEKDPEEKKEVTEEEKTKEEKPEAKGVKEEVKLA
For data set [1], the system named is RPMI-8226. Put plainly: Effect on Ac-H4 expression in human RPMI-8226 cells at 0.1 to 2.5 uM incubated for 24 hrs by Western blot analysis. The format is functional, cell-based. As to conditions: dose 0.1-2.5 µM.
In a further data set the target is Histone deacetylase 5 (Homo sapiens, UniProt Q9UQL6). Put plainly: Inhibition of HDAC5 (unknown origin) preincubated for 10 mins followed by substrate addition by fluorescence based assay.
Sequence of Histone deacetylase 5 (Q9UQL6 whole entry): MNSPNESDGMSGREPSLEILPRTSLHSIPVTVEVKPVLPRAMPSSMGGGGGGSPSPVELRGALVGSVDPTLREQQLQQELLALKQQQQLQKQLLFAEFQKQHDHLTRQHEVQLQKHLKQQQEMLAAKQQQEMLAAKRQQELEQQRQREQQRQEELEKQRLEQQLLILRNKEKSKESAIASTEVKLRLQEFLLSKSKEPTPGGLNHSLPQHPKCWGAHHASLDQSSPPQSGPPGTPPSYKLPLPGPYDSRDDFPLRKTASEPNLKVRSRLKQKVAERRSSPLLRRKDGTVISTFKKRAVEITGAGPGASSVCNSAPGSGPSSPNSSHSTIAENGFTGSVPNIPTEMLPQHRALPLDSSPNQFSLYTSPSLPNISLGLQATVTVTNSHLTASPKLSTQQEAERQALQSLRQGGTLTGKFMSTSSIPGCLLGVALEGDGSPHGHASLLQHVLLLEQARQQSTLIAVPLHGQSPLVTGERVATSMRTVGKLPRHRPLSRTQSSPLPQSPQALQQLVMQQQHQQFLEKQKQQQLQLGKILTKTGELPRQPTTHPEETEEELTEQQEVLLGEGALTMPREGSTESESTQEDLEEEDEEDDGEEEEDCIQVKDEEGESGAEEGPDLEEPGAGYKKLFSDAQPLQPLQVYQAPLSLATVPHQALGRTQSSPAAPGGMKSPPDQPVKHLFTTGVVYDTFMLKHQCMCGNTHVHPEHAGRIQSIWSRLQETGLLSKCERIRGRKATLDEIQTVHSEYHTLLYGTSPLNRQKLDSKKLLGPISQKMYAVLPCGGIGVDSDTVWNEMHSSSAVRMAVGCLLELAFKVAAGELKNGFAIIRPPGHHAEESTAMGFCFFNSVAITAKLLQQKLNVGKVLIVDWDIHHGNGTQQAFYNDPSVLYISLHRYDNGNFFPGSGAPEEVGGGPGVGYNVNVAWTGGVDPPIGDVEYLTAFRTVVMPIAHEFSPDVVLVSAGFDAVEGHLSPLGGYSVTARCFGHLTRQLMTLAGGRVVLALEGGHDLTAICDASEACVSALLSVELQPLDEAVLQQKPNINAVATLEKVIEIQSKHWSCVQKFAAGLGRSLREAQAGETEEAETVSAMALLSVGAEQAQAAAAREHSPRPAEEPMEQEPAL
Data set [2] has as its system RPMI-8226. Put plainly: Induction of cell cycle arrest at G2 phase in human RPMI-8226 cells at 2.5 uM incubated for 24 hrs by PI staining based flow cytometry (reference value: 18.3 %). The format is functional.
The test system of data set [3] is RPMI-8226. Put plainly: Induction of apoptosis in human RPMI-8226 cells assessed as increase in caspase-3 expression at 0.1 to 2.5 uM incubated for 24 hrs by Western blot analysis. The format is functional, cell-based. The conditions noted are these: dose 0.1-2.5 µM.
The nature of data set [4]: AUC (0 to t) in mouse at 10 mg/kg, po. The format is ADME, organism-based. As to conditions: in vivo.
Data set [5] in a line: Oral bioavailability in mouse at 10 mg/kg. Type of data set: ADME, organism-based. As to conditions: in vivo.
The nature of data set [6]: Toxicity in Balb/c nude mouse xenografted with human RPMI-8226 cells assessed as adverse effect on liver at 10 to 40 mg/kg, po qd for 21 days administered consecutively by H and E staining based analysis. The format is organism-based. As to conditions: in vivo, 504 h, dose 10-40 mg/kg, time 21 day. A general note: A xenograft is tissue or cells of one species grown in another, often human tumour cells in immunodeficient mice.

For a further data set, the system named is MDA-MB-468. The data set is described as follows: cells. The conditions noted are these: Homo sapiens, MDA-MB-468, 24 h.
For another data set, the system named is SGC-7901. The data set is described as follows: Cytotoxicity against human SGC-7901 cells assessed as inhibition of cell viability incubated for 24 hrs by CCK8 assay. The conditions noted are these: SGC-7901, 24 h. Type of data set: functional, cell-based. For orientation: Tetrazolium dyes change colour on reduction, which living cells bring about.
For data set [7], the system named is RPMI-8226. Put plainly: Induction of apoptosis in human RPMI-8226 cells assessed as late apoptotic cells at 0.5 uM incubated for 24 hrs by Annexin V-FITC/PI staining based flow cytometry (reference value: 2.78 %). The format is functional.
Data set [8] has as its system RPMI-8226. The data set is described as follows: Induction of apoptosis in human RPMI-8226 cells assessed as increase in p53 expression at 0.1 to 2.5 uM incubated for 24 hrs by Western blot analysis. Type of data set: functional, cell-based. The conditions noted are these: dose 0.1-2.5 µM.
The test system of data set [9] is RPMI-8226. Put plainly: Induction of cell cycle arrest at G1 phase in human RPMI-8226 cells at 0.1 uM incubated for 24 hrs by PI staining based flow cytometry (reference value: 19.2 %). The format is functional. In general terms: Flow cytometry measures light scatter and fluorescence of single cells or particles in a stream.
The subject of data set [10] is RPMI-8226. The data set is described as follows: Induction of cell cycle arrest at S phase in human RPMI-8226 cells at 0.1 uM incubated for 24 hrs by PI staining based flow cytometry (reference value: 58.5 %). The format is functional.
The nature of data set [11]: Toxicity in Balb/c nude mouse xenografted with human RPMI-8226 cells assessed as adverse effect on serum uric acid level at 10 to 40 mg/kg, po qd for 21 days administered consecutively. The format is organism-based. As to conditions: in vivo, 504 h, dose 10-40 mg/kg, time 21 day.
Data set [12] deals with RPMI-8226. The data set is described as follows: Induction of cell cycle arrest at S phase in human RPMI-8226 cells at 2.5 uM incubated for 24 hrs by PI staining based flow cytometry (reference value: 58.5 %). Type of data set: functional.
A short description of data set [13]: Clearance in mouse at 1 mg/kg, iv. The format is ADME, organism-based. As to conditions: in vivo.
The target of another data set is Histone deacetylase 4 (Homo sapiens, UniProt P56524). Put plainly: Inhibition of HDAC4 (unknown origin) preincubated for 10 mins followed by substrate addition by fluorescence based assay.
Sequence of Histone deacetylase 4 (P56524 whole entry): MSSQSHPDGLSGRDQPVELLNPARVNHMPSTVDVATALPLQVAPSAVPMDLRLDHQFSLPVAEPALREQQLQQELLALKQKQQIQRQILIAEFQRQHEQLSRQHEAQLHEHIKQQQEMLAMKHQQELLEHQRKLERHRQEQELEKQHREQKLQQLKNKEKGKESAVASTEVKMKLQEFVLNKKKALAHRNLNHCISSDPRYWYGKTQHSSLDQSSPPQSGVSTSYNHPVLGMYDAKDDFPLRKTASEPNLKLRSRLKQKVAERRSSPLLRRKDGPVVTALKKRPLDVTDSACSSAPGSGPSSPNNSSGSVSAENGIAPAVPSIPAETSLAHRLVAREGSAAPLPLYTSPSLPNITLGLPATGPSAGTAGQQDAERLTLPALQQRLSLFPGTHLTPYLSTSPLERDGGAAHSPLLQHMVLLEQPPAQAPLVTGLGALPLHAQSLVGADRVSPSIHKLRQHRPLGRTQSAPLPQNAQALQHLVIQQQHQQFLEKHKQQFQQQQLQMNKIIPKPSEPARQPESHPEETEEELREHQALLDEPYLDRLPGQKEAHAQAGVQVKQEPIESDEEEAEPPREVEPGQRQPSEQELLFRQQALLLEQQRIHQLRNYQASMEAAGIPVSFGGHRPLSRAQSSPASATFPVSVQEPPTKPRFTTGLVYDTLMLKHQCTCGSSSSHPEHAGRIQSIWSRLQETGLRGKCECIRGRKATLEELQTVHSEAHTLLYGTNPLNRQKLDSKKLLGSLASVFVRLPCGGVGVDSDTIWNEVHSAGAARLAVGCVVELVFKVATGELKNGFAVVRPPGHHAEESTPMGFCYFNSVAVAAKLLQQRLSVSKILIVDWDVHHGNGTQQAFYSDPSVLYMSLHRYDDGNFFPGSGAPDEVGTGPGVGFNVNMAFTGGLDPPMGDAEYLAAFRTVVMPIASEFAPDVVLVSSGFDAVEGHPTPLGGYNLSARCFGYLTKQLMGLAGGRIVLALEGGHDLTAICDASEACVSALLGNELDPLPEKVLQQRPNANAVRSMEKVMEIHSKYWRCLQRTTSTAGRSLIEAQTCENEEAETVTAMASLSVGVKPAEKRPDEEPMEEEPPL
Another data set addresses Histone deacetylase 9 (Homo sapiens, UniProt Q9UKV0). Put plainly: Inhibition of HDAC9 (unknown origin) preincubated for 10 mins followed by substrate addition by fluorescence based assay.
For a further data set, the target named is T1, Histone deacetylase 11 (Homo sapiens, UniProt Q96DB2).
T1 sequence (Q96DB2 whole entry): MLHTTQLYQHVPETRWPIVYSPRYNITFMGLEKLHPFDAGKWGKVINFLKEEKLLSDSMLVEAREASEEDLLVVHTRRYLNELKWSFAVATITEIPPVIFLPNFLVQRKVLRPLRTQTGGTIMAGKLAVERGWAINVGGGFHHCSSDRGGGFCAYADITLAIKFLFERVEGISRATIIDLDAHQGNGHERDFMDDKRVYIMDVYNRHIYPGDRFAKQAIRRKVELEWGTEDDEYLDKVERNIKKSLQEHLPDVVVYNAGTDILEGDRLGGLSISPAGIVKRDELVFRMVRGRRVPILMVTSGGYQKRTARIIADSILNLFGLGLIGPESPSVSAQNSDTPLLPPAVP
Put plainly: Inhibition of HDAC11 (unknown origin) preincubated for 10 mins followed by substrate addition by fluorescence based assay.

Sequence of Histone deacetylase 9 (Q9UKV0 whole entry): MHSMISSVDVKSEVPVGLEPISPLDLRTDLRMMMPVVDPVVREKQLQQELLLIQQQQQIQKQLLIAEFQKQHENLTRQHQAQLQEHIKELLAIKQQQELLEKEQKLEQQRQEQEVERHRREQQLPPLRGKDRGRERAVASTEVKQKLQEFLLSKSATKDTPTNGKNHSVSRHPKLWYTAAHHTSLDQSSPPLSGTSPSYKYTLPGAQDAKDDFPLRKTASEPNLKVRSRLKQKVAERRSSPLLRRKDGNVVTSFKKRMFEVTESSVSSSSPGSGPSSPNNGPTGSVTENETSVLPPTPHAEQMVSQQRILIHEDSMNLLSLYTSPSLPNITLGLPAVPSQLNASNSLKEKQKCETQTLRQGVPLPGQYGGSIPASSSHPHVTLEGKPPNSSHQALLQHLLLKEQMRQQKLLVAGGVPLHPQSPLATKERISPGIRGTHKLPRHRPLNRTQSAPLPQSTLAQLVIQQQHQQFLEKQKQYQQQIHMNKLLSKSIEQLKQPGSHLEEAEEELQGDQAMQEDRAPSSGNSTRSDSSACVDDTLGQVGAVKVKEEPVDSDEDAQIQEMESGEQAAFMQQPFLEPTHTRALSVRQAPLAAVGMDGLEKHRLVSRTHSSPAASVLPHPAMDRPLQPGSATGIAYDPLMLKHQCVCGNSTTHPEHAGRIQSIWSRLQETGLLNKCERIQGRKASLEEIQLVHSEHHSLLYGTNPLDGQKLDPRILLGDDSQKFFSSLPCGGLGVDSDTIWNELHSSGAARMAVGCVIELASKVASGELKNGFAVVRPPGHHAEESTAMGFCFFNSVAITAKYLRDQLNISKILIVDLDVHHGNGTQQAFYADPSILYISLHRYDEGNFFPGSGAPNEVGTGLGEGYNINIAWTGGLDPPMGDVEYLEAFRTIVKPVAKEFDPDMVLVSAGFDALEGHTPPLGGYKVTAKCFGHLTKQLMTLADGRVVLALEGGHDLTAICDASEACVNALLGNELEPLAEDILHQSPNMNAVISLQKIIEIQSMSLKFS

Consider `Cn1c([C@@H](Cc2ccccc2)NCc2ccccc2)nc2cc(C(=O)NO)ccc21`, for which the IC50 was 1130 nM on Histone deacetylase 1; 2120 nM against Histone deacetylase 5; greater than 50 µM in the data set on MDA-MB-468; greater than 50 µM in the data set on SGC-7901; 1930 nM on Histone deacetylase 4; 1880 nM against Histone deacetylase 9. The compound further yielded a half-inhibitory concentration (IC50) on Histone deacetylase 11 of 983 nM. Further, in the data set on RPMI-8226 [1], the outcome was inactive. Moreover, the Activity in the data set on RPMI-8226 [2] was 25.6%; in data set [6], “Non-Toxic”; in the data set with RPMI-8226 [7] it was 4.24%; in the data set on RPMI-8226 [9], 18.2%; in the data set with RPMI-8226 [10] it was 54%; in data set [11], “Non-Toxic”. This compound showed an Activity with RPMI-8226 [12] of 39.8%. For the same compound, the outcome in the data set on RPMI-8226 [3] and in the data set on RPMI-8226 [8] was Active. The compound also displayed an AUC(0-t) in data set [4] of 52.1 ng·h/mL. For the same compound, in data set [5], the bioavailability was 4.6%. The compound also had a clearance in [13] of 82.9 mL/min/kg.
